Results as given in patent US6515012B2, “Process for the preparation of zofenopril calcium salt” (Menarini Ricerche S.p.A., priority 1998, dated 2003).
Where a name gives a salt, the structure may show the parent alone.

Key:
[1] = storage stability of zofenopril calcium salt samples (interconversion to polymorph B, by DRX); assay type: physicochemical
Description: Determination of polymorph B in the samples of Polymoroh A : The percentage of polymorph B in samples of Polymorph A can easily be evaluated by observation of the X diffractograms (DRX). The region used for the analysis was that for 2θ ranging from 15 to 25. In this region, three peaks were evidenced, respectively I with […], II with 2θ=19.2 and III with 20θ=19.9, and the relative intensities I/III and II/III of various Polymorph A samples containing known amounts of Polymorph B (not above 30%) were measured. A regression equation was thereby obtained, which correlates the intensities of peaks I and II relating to peak III with the percentage of polymorph B present in the samples. The precision and the accuracy of the results obtainable with the above mentioned equation were good and, based on the confidence limits, the minimum amount of polymorph B detectable in polymorph A could be evaluated to be <7%. FIG. 4 reports the relationship between the above mentioned values based on the thus calculated regression equation and the observed values.

[2] = Stability to micronisation of Polymorphs (grinding in ball microniser, DRX); assay type: physicochemical; conditions: Retsch MM2 ball microniser, 200 mg sample, 80 vibrations/min, 15 minutes
[3] = resistance to compression and/or micronisation; assay type: physicochemical; conditions: polymorph A compared with polymorph B
[4] = tablets prepared with polymorph A or with polymorph B; J. Pharmaceutical & Biomedical Analysis, 1994, Vol 12, pp. 173-177; cited from earlier work

| Compound | interconversion to polymorph B ([1]; samples obtained according to the process of the invention) | percentage of polymorph B after storage ([1]; stored for 3 years at 25° C. and 60% relative humidity) | percentage of polymorph B after storage ([1]; stored for 6 months at 40° C. and 75% relative humidity) | crystalline structure after grinding, according to DRX [2] | resistance to compression and/or micronisation [3] | dissolution rate of tablets [4] |
| --- | --- | --- | --- | --- | --- | --- |
| C[C@H](CSC(=O)c1ccccc1)C(=O)N1C[C@@H](Sc2ccccc2)C[C@H]1C(=O)O [zofenopril calcium salt, [(4S)-(2S)-3-(benzoylthio)-2-methylpropionyl-4 (phenylthio)-L-proline] calcium salt] | no interconversion to polymorph B | below 7% | below 7% |  |  |  |
| C[C@H](CSC(=O)c1ccccc1)C(=O)N1C[C@@H](Sc2ccccc2)C[C@H]1C(=O)O [polymorph A] |  |  |  | still keeps the crystalline structure | more resistant to compression and/or micronisation than polymorph B | could not be differentiated |
| C[C@H](CSC(=O)c1ccccc1)C(=O)N1C[C@@H](Sc2ccccc2)C[C@H]1C(=O)O [polymorph B] |  |  |  | completely loses its crystalline structure |  | could not be differentiated |
